Experimental findings from PMC8950995, “Identification and Functional Analysis of Glutathione S-Transferases from Sitophilus zeamais in Olfactory Organ” (Insects, 2022) are described below.

This assay addresses T1, SzeaGSTd1 (Sitophilus zeamais, UniProt A0A8F0D7V2).
T1 sequence (A0A8F0D7V2 22-247): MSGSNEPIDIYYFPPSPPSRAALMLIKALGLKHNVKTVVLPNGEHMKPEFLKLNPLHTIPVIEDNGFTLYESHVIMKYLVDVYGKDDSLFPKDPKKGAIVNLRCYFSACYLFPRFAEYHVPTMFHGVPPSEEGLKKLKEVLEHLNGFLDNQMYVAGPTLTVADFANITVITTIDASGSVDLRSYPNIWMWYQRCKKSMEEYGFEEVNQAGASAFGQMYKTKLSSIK
In words: GSH conjugation, absorbance at […] nm, Michaelis-Menten. Type of assay: biochemical. Conditions: 1 mM GSH, 100 mM phosphate pH 7.2.

SMILES strings stand for the structures.

`O=[N+]([O-])c1ccc(Cl)c([N+](=O)[O-])c1` [CDNB, 1-chloro-2,4-dinitrobenzene]: the Km is 420 ± 40 µM.

By Km is commonly meant the concentration of substrate that gives half-maximal velocity.
